Measurements reported in the NIST ThermoML archive (doi:10.1016/j.jct.2017.06.002).

Experiment: xn = mol fraction of the nth substance listed
Conditions: 100 kPa, Liquid; for viscosity: Concentric cylinders viscometry; for mass density: Vibrating tube method

COCOCOCOCOC [2,4,6,8,10-pentaoxaundecane] + COCOCOC
Conditions	mass density [kg/m3]	viscosity [mPa·s]
288.15 K, x2 = 0	1078.8	2.207
288.15 K, x2 = 0.12	1069.8	1.99
288.15 K, x2 = 0.24	1061.6	1.788
288.15 K, x2 = 0.35	1053.5	1.608
288.15 K, x2 = 0.45	1045.4	1.449
288.15 K, x2 = 0.55	1037.2	1.318
288.15 K, x2 = 0.65	1029	1.209
288.15 K, x2 = 0.74	1021	1.119
288.15 K, x2 = 0.83	1013.2	1.043
288.15 K, x2 = 0.92	1005.8	0.977
293.15 K, x2 = 0	1073.3	2.015
293.15 K, x2 = 0.12	1064.6	1.835
293.15 K, x2 = 0.24	1056.5	1.669
293.15 K, x2 = 0.35	1048.6	1.518
293.15 K, x2 = 0.45	1040.6	1.378
293.15 K, x2 = 0.55	1032.6	1.265
293.15 K, x2 = 0.65	1024.6	1.166
293.15 K, x2 = 0.74	1016.7	1.082
293.15 K, x2 = 0.83	1009	1.019
293.15 K, x2 = 0.92	1001.8	0.962
298.15 K, x2 = 0	1068.2	1.848
298.15 K, x2 = 0.12	1059.7	1.697
298.15 K, x2 = 0.24	1051.9	1.557
298.15 K, x2 = 0.35	1043.9	1.43
298.15 K, x2 = 0.45	1036	1.315
298.15 K, x2 = 0.55	1028	1.212
298.15 K, x2 = 0.65	1020.1	1.125
298.15 K, x2 = 0.74	1012.1	1.05
298.15 K, x2 = 0.83	1004.4	0.9918
298.15 K, x2 = 0.92	996.8	0.943
303.15 K, x2 = 0	1063.4	1.703
303.15 K, x2 = 0.12	1055.2	1.575
303.15 K, x2 = 0.24	1047.3	1.452
303.15 K, x2 = 0.35	1039.4	1.344
303.15 K, x2 = 0.45	1031.5	1.243
303.15 K, x2 = 0.55	1023.5	1.153
303.15 K, x2 = 0.65	1015.4	1.079
303.15 K, x2 = 0.74	1007.4	1.017
303.15 K, x2 = 0.83	999.4	0.97
303.15 K, x2 = 0.92	991.7	0.9255
308.15 K, x2 = 0	1059.1	1.576
308.15 K, x2 = 0.12	1050.9	1.466
308.15 K, x2 = 0.24	1043	1.361
308.15 K, x2 = 0.35	1035	1.264
308.15 K, x2 = 0.45	1027.2	1.175
308.15 K, x2 = 0.55	1019.2	1.099
308.15 K, x2 = 0.65	1011.3	1.036
308.15 K, x2 = 0.74	1003.2	0.9843
308.15 K, x2 = 0.83	995	0.943
308.15 K, x2 = 0.92	986.9	0.9043
313.15 K, x2 = 0	1055.2	1.464
313.15 K, x2 = 0.12	1047.2	1.371
313.15 K, x2 = 0.24	1039.4	1.278
313.15 K, x2 = 0.35	1031.5	1.194
313.15 K, x2 = 0.45	1023.7	1.117
313.15 K, x2 = 0.55	1015.8	1.05
313.15 K, x2 = 0.65	1007.9	0.9955
313.15 K, x2 = 0.74	999.8	0.9504
313.15 K, x2 = 0.83	991.3	0.916
313.15 K, x2 = 0.92	982.8	0.8847

COCOCOCOCOC [2,4,6,8,10-pentaoxaundecane] + COCOCOCOC
Conditions	mass density [kg/m3]	viscosity [mPa·s]
288.15 K, x2 = 0	1078.8	2.207
288.15 K, x2 = 0.12	1074.7	2.085
288.15 K, x2 = 0.24	1070.3	1.982
288.15 K, x2 = 0.35	1065.8	1.899
288.15 K, x2 = 0.45	1061.1	1.83
288.15 K, x2 = 0.55	1056.3	1.769
288.15 K, x2 = 0.65	1051.8	1.707
288.15 K, x2 = 0.74	1047.6	1.642
288.15 K, x2 = 0.83	1043.9	1.553
288.15 K, x2 = 0.86	1042.2	–
288.15 K, x2 = 0.92	1039.9	1.442
288.15 K, x2 = 0.96	1039.1	–
293.15 K, x2 = 0	1073.3	2.015
293.15 K, x2 = 0.12	1069.2	1.895
293.15 K, x2 = 0.24	1065.1	1.798
293.15 K, x2 = 0.35	1061	1.724
293.15 K, x2 = 0.45	1056.7	1.663
293.15 K, x2 = 0.55	1052.2	1.606
293.15 K, x2 = 0.65	1047.5	1.556
293.15 K, x2 = 0.74	1043.1	1.494
293.15 K, x2 = 0.83	1038.9	1.412
293.15 K, x2 = 0.86	1036.6	–
293.15 K, x2 = 0.92	1034.6	1.311
293.15 K, x2 = 0.96	1032.4	–
298.15 K, x2 = 0	1068.2	1.848
298.15 K, x2 = 0.12	1064.2	1.729
298.15 K, x2 = 0.24	1060	1.639
298.15 K, x2 = 0.35	1055.5	1.574
298.15 K, x2 = 0.45	1051.3	1.523
298.15 K, x2 = 0.55	1047.1	1.472
298.15 K, x2 = 0.65	1043.1	1.429
298.15 K, x2 = 0.74	1038.5	1.374
298.15 K, x2 = 0.83	1034.1	1.3
298.15 K, x2 = 0.86	1031.3	–
298.15 K, x2 = 0.92	1029.3	1.21
298.15 K, x2 = 0.96	1026.3	–
303.15 K, x2 = 0	1063.4	1.703
303.15 K, x2 = 0.12	1059.7	1.582
303.15 K, x2 = 0.24	1055.1	1.496
303.15 K, x2 = 0.35	1050.5	1.437
303.15 K, x2 = 0.45	1046.1	1.394
303.15 K, x2 = 0.55	1041.8	1.354
303.15 K, x2 = 0.65	1038	1.319
303.15 K, x2 = 0.74	1033.9	1.273
303.15 K, x2 = 0.83	1029.5	1.217
303.15 K, x2 = 0.86	1026.8	–
303.15 K, x2 = 0.92	1024.2	1.139
303.15 K, x2 = 0.96	1020.7	–
308.15 K, x2 = 0	1059.1	1.576
308.15 K, x2 = 0.12	1055.5	1.448
308.15 K, x2 = 0.24	1050.8	1.366
308.15 K, x2 = 0.35	1046.2	1.313
308.15 K, x2 = 0.45	1041.8	1.28
308.15 K, x2 = 0.55	1037.5	1.248
308.15 K, x2 = 0.65	1033.7	1.23
308.15 K, x2 = 0.74	1029.8	1.192
308.15 K, x2 = 0.83	1025.5	1.149
308.15 K, x2 = 0.86	1022.6	–
308.15 K, x2 = 0.92	1019.8	1.087
308.15 K, x2 = 0.96	1015.6	–
313.15 K, x2 = 0	1055.2	1.464
313.15 K, x2 = 0.12	1051.7	1.331
313.15 K, x2 = 0.24	1047.2	1.252
313.15 K, x2 = 0.35	1042.8	1.207
313.15 K, x2 = 0.45	1038.2	1.18
313.15 K, x2 = 0.55	1034.2	1.155
313.15 K, x2 = 0.65	1030.3	1.143
313.15 K, x2 = 0.74	1026.4	1.121
313.15 K, x2 = 0.83	1022.1	1.092
313.15 K, x2 = 0.86	1018.9	–
313.15 K, x2 = 0.92	1016.2	1.044
313.15 K, x2 = 0.96	1011.6	–
